Experimental data published in US20080242636A1, “MODIFIED CYCLODEXTRIN SULFATE-71 (TERIGYN) AS A MICROBICIDE AGENT” (priority 2007, published 2008).

What was measured:
[1] = test system: HIV; conditions: as described by Tanabe Seiyaku 1991; cited from earlier work
[2] = test system: HIV-1 R5 viruses; test: TZM-bL luciferase assay, R5 viruses; type: cell-based; conditions: TZM-bL cells, 48 hr at 37 C
Procedure: (§1) To further determine the inhibition of Terygyn of either CXCR4 or R5 viruses in cervical explants, various concentrations of Terygyn were cultured in TZM-bL cells with TCID50 HIV-1. TZM-bL are X4 positive HeLa cell clones that have been engineered to express CD4 and CCR5 and integrates a reporter gene for firefly luciferase and E coli b-galactosidase. Virus and drugs were left in culture for 48 hr at 37 C and luciferase assay determined thereafter.

[3] = rats, safety trials; cited from earlier work
[4] = test system: LAV-1, a laboratory strain of HIV-1; test: p24 antigen anti-HIV assay in pretreated PBMC and MT4 cells infected with LAV-1; type: cell-based
Procedure: (§2) Primary peripheral blood mononuclear cells and a MT4 cell line were pretreated with varying concentrations of terygyn before infection with LAV-1, a laboratory strain of HIV-1. As a control, a set of similar cells were not pretreated with the compound. Anti-HIV activity was measured using p24 antigen testing. Terygyn achieved total HIV inhibition (IC100) at 1 ug/ml. Cell toxicity was not observed till the concentration of terygyn was 10 ug/ml. […] Terygyn's ability to inhibit HIV at lower concentration makes it a more attractive compound for safe clinical use.

[5] = test system: HIV-1 X4 viruses; test: TZM-bL luciferase assay, X4 viruses; type: cell-based; conditions: TZM-bL cells, 48 hr at 37 C
Procedure: as §1

[6] = test system: Primary peripheral blood mononuclear cells and MT4 cell line; type: cell-based
Procedure: as §2

[7] = IC50 comparison with literature value
[8] = PBMC and MT4 pretreated, LAV-1, p24 antigen

SMILES: O=S(=O)([O-])OC[C@@H]1O[C@@H]2O[C@H]3[C@H](OS(=O)(=O)[O-])[C@H](OCc4ccccc4)[C@@H](O[C@H]4[C@H](OS(=O)(=O)[O-])[C@H](OCc5ccccc5)[C@@H](O[C@H]5[C@H](OS(=O)(=O)[O-])[C@H](OCc6ccccc6)[C@@H](O[C@H]6[C@H](OS(=O)(=O)[O-])[C@H](OCc7ccccc7)[C@@H](O[C@H]7[C@H](OS(=O)(=O)[O-])[C@H](OCc8ccccc8)C(O[C@H]8[C@H](OS(=O)(=O)[O-])[C@H](OCc9ccccc9)C(O[C@H]1[C@H](OS(=O)(=O)[O-])[C@@H]2OCc1ccccc1)O[C@H]8COS(=O)(=O)[O-])O[C@H]7COS(=O)(=O)[O-])O[C@H]6COS(=O)(=O)[O-])O[C@H]5COS(=O)(=O)[O-])O[C@H]4COS(=O)(=O)[O-])O[C@H]3COS(=O)(=O)[O-].[Na+].[Na+].[Na+].[Na+].[Na+].[Na+].[Na+].[Na+].[Na+].[Na+].[Na+].[Na+].[Na+].[Na+] [Terygyn, Tetradecasodium heptakis (2-0 benzyl)β-cyclodextrin tetradecasulfate]
- anti-HIV activity in vitro [1]: 0.98 µg/mL
- IC50 R5 viruses [2]: 0.13 ± 0.05 µg/mL
- tolerability [3]: 125 mg/kg/day
- fold more potent than PRO 2000 [4, 7]: fifty-fold
- fold more potent than Ushercell [4, 7]: 100 fold
- in vitro antiviral activity IC50 [4, 8]: 0.5 µg/mL
- total HIV inhibition (IC100) [4, 8]: 1 µg/mL
- IC50 X4 viruses [5]: 0.88 ± 1.2 µg/mL
- concentration until which cell toxicity was not observed [6]: 10000 ng/mL
